Laboratory results taken from publication PMC8512764, “New 4-Aminoproline-Based Small Molecule Cyclopeptidomimetics as Potential Modulators of α4β1 Integrin” (Molecules, 2021).
Read-outs that look alike come from different tables or passages of the source. *1 amine or outer side, *2 acyl side, *3 side chain or, on linkers, in order; H or OH if unused. Where a SMILES comes first, the peptide text is derived from it. Bridges are numbered along the chain shown (N, C = ends). [ ]: non-standard residue; d: D form. The star is where a group is joined. ξ: configuration not given here. ξPro(4ξ-NH2) = O=C(C1CC(N[*:3])CN1[*:1])[*:2]; X1 = O=C(Cc1ccc(N[*:1])cc1)[*:2]; NH(2-Me-phenyl) = Cc1ccccc1N*; CO = O=C([*:1])[*:2]

Key:
α4β1 integrin = target: T1, α4β1 integrin (Homo sapiens, UniProt P05556+P13612); experiment: Jurkat cell adhesion assay on VCAM-1-coated wells; format: cell-based; conditions: Jurkat cell adhesion to VCAM-1 (2 μg/mL); means ± SD, n = 3; tested 0.1 nM to 100 μM; read-out: EC50/IC50 (IC50 for compounds reducing cell adhesion)
T1 construct: Jurkat cells endogenously express α4β1 integrin; host or cells: Jurkat E6.1 cells
Procedure: To investigate the ability of the newly synthesized cyclopeptidomimetics 12–18 to recognize and bind α4β1 integrin, cell adhesion assays were performed on VCAM-1. The compounds were evaluated for their ability to interfere with α4β1 integrin-mediated cell adhesion by using Jurkat cells, which are known to constitutively express this integrin [46, 48, 49, 50, 51].
Jurkat E6.1 cells were purchased from American Type Culture Collection (ATCC, Rockville, MD, USA) and were routinely cultured in RPMI-1640 (LifeTechnologies, Milan, Italy) supplemented with 10% FBS (fetal bovine serum, Life Technologies) and 2 mM glutamine. Cells were kept at 37 °C under 5% CO2 humidified atmosphere. Jurkat cells are a widely used cell model to study potential agonist or antagonist ligands able to modulate integrin-mediated cell adhesion. Jurkat cells endogenously express α4β1 integrin [13].
The assays were performed as previously described. In brief, black 96 well plates were coated with VCAM-1 (2 μg/mL) overnight at 4 °C; then, non-specific hydrophobic binding sites were blocked with 1% BSA (bovine serum albumin, Sigma-Aldrich) in HBSS (Life Technologies) for 30 min at 37 °C. Jurkat cells were labelled with CellTracker green CMFDA (12.5 μM, Life Technolgies) and pre-incubated with various concentration (10^−4–10^−10 M) of each new cyclopeptidomimetic or with the vehicle (DMSO) for 30 min at 37 °C. Afterwards, Jurkat cells were plated on VCAM-1-coated wells and incubated for 30 min at 37 °C. Then, wells were washed three times with 1% BSA in HBSS and Jurkat cells were lysed with 0.5% Triton X-100 in PBS for 30 min at 4 °C. Green fluorescence (Ex485 nm/Em 535 nm) was measured in an EnSpire Multimode Plate Reader (PerkinElmer, Waltham, MA, USA). Experiments were performed in quadruplicate and repeated at least three times. The number of adherent cells was determined by comparison with a standard curve made with a known concentration of labelled Jurkat cells. Data analysis and IC50/EC50 values were calculated using GraphPad Prism 6.0 (GraphPad Software, San Diego, CA, USA).
The number of adherent cells was determined as described above.

[1] = head-to-tail lactamisation (amide bond) of side-chain-protected linear peptides; HATU (3 equiv)/HOAt (3 equiv)/2,4,6-collidine (3 equiv); linear peptide + collidine added dropwise to HATU/HOAt, 5 h, argon; conditions: the molecule shown is the open-chain precursor, DCM/DMF 15:1, 25.0 °C
[2] = amide bond, HATU/HOAt/collidine, DCM/DMF 15:1, 25.0 °C

T1 sequence (P13612 34-1032): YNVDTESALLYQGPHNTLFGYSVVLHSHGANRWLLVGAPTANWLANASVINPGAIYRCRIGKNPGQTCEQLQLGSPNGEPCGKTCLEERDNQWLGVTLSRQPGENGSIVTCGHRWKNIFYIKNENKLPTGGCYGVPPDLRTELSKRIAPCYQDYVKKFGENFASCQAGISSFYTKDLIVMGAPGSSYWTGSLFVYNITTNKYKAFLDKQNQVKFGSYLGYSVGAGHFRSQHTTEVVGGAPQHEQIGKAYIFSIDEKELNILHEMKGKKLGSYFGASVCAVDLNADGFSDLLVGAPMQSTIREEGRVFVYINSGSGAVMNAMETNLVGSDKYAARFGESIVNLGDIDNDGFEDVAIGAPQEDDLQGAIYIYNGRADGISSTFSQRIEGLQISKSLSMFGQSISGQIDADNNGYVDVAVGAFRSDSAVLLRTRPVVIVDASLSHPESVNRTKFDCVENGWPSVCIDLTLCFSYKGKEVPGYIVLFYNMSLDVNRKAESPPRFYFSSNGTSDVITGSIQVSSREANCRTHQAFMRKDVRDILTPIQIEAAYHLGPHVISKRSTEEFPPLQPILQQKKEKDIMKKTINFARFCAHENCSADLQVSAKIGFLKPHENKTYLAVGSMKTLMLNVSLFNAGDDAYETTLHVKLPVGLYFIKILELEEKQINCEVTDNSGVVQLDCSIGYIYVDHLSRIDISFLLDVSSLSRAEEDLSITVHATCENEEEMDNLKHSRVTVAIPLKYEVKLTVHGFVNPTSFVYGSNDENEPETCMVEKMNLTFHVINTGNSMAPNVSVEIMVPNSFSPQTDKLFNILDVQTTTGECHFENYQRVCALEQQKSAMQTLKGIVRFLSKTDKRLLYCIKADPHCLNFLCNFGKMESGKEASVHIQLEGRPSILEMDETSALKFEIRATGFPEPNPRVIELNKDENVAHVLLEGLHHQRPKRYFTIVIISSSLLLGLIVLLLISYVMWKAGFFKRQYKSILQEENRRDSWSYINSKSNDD
T1 sequence (P05556 21-798): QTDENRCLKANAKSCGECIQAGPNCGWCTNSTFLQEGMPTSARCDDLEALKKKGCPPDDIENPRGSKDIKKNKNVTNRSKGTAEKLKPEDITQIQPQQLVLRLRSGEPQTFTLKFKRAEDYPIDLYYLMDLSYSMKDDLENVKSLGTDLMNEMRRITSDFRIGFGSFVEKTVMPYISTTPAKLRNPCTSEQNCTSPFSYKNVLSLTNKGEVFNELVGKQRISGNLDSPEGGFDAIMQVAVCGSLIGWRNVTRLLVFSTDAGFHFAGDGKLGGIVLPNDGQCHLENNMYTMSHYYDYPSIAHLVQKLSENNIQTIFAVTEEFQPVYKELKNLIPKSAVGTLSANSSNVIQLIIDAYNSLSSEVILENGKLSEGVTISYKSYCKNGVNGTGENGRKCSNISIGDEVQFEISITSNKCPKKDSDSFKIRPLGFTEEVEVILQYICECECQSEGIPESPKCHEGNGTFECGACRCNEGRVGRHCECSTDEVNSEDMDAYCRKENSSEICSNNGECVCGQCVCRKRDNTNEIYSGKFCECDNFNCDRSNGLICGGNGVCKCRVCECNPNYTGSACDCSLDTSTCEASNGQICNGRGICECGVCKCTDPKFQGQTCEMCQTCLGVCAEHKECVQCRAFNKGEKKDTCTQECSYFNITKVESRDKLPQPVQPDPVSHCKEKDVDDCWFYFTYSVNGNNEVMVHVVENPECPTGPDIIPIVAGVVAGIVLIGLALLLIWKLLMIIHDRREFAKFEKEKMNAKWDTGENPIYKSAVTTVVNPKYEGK

Cc1ccccc1NC(=O)Nc1ccc(CC(=O)N2CC3CC2C(=O)NC(CC(C)C)C(=O)NC(CC(=O)O)C(=O)NC(C(C)C)C(=O)NCC(=O)N3)cc1 (stereo not drawn) [Compound 12, c[(MPUPA)Amp-Leu-Asp-Val-Gly]] ({NH(2-Me-phenyl)-CO}-[X1][ξPro(4ξ-NH2)]LDVG; lactam 2-C; configuration not given here)
IC50 (α4β1 integrin): > 100 µM

Cc1ccccc1NC(=O)Nc1ccc(CC(=O)N2CC3CC2C(=O)NC(CC(C)C)C(=O)NC(CCC(=O)O)C(=O)NC(C(C)C)C(=O)NCC(=O)N3)cc1 (stereo not drawn) [Compound 13, c[(MPUPA)Amp-Leu-Glu-Val-Gly]] ({NH(2-Me-phenyl)-CO}-[X1][ξPro(4ξ-NH2)]LEVG; lactam 2-C; configuration not given here)
IC50 (α4β1 integrin): > 100 µM

Cc1ccccc1NC(=O)Nc1ccc(CC(=O)N2CC3CC2C(=O)NC(CC(C)C)C(=O)NC(CC(=O)O)C(=O)NC(C(C)C)C(=O)N3)cc1 (stereo not drawn) [Compound 14, c[(MPUPA)Amp-Leu-Asp-Val]] ({NH(2-Me-phenyl)-CO}-[X1][ξPro(4ξ-NH2)]LDV; lactam 2-C; configuration not given here)
IC50 (α4β1 integrin): > 100 µM

Cc1ccccc1NC(=O)Nc1ccc(CC(=O)N2CC3CC2C(=O)NC(CC(C)C)C(=O)NC(CCC(=O)O)C(=O)NC(C(C)C)C(=O)N3)cc1 (stereo not drawn) [Compound 15, c[(MPUPA)Amp-Leu-Glu-Val]] ({NH(2-Me-phenyl)-CO}-[X1][ξPro(4ξ-NH2)]LEV; lactam 2-C; configuration not given here)
IC50 (α4β1 integrin): > 100 µM

Cc1ccccc1NC(=O)Nc1ccc(CC(=O)N2CC3CC2C(=O)NC(C(C)C)C(=O)NC(CCC(=O)O)C(=O)NC(CC(C)C)C(=O)N3)cc1 (stereo not drawn) [Compound 17, c[(MPUPA)Amp-Val-Glu-Leu]] ({NH(2-Me-phenyl)-CO}-[X1][ξPro(4ξ-NH2)]VEL; lactam 2-C; configuration not given here)
IC50 (α4β1 integrin): > 100 µM

Cc1ccccc1NC(=O)Nc1ccc(CC(=O)N2CC3CC2C(=O)NC(CCCNC(=N)N)C(=O)NCC(=O)NC(CC(=O)O)C(=O)N3)cc1 (stereo not drawn) [Compound 18, c[(MPUPA)Amp-Arg-Gly-Asp]] ({NH(2-Me-phenyl)-CO}-[X1][ξPro(4ξ-NH2)]RGD; lactam 2-C; configuration not given here)
IC50 (α4β1 integrin): > 100 µM

Cc1ccccc1NC(=O)Nc1ccc(CC(=O)N2C[C@@H](NC(=O)[C@@H](N)CC(=O)OC(C)(C)C)C[C@H]2C(=O)N[C@@H](CCCNC(=N)NS(=O)(=O)c2c(C)c(C)c3c(c2C)CCC(C)(C)O3)C(=O)NCC(=O)O)cc1 [H-Asp(tBu)-Amp(MPUPA)-Arg(Pmc)-Gly-OH]
ring closure, isolated yield ([1]; 14-membered ring): 43%

Cc1ccccc1NC(=O)Nc1ccc(CC(=O)N2C[C@@H]3C[C@H]2C(=O)N[C@@H](CCCNC(=N)NS(=O)(=O)c2c(C)c(C)c4c(c2C)CCC(C)(C)O4)C(=O)NCC(=O)N[C@@H](CC(=O)OC(C)(C)C)C(=O)N3)cc1 [H-Asp(tBu)-Amp(MPUPA)-Arg(Pmc)-Gly-OH]
ring closure, isolated yield ([2]; from H-Asp(tBu)-Amp(MPUPA)-Arg(Pmc)-Gly-OH, 14-membered ring, 0.52 mM): 43%

Cc1ccccc1NC(=O)Nc1ccc(CC(=O)N2C[C@@H](NC(=O)[C@@H](N)CC(C)C)C[C@H]2C(=O)N[C@H](C(=O)N[C@@H](CC(=O)OC(C)(C)C)C(=O)O)C(C)C)cc1 [H-Leu-Amp(MPUPA)-Val-Asp(tBu)-OH]
ring closure, isolated yield ([1]; 14-membered ring): 73%

Cc1ccccc1NC(=O)Nc1ccc(CC(=O)N2C[C@@H]3C[C@H]2C(=O)N[C@@H](C(C)C)C(=O)N[C@@H](CC(=O)OC(C)(C)C)C(=O)N[C@@H](CC(C)C)C(=O)N3)cc1 [H-Leu-Amp(MPUPA)-Val-Asp(tBu)-OH]
ring closure, isolated yield ([2]; from H-Leu-Amp(MPUPA)-Val-Asp(tBu)-OH, 14-membered ring, 0.78 mM): 73%

Cc1ccccc1NC(=O)Nc1ccc(CC(=O)N2C[C@@H](NC(=O)[C@@H](N)CC(C)C)C[C@H]2C(=O)N[C@H](C(=O)N[C@@H](CCC(=O)OC(C)(C)C)C(=O)O)C(C)C)cc1 [H-Leu-Amp(MPUPA)-Val-Glu(tBu)-OH]
ring closure, isolated yield ([1]; 14-membered ring): 73%

Cc1ccccc1NC(=O)Nc1ccc(CC(=O)N2C[C@@H]3C[C@H]2C(=O)N[C@@H](C(C)C)C(=O)N[C@@H](CCC(=O)OC(C)(C)C)C(=O)N[C@@H](CC(C)C)C(=O)N3)cc1 [H-Leu-Amp(MPUPA)-Val-Glu(tBu)-OH]
ring closure, isolated yield ([2]; from H-Leu-Amp(MPUPA)-Val-Glu(tBu)-OH, 14-membered ring, 0.74 mM): 73%

Cc1ccccc1NC(=O)Nc1ccc(CC(=O)N2C[C@@H](NC(=O)[C@@H](N)C(C)C)C[C@H]2C(=O)N[C@@H](CC(C)C)C(=O)N[C@@H](CC(=O)OC(C)(C)C)C(=O)O)cc1 [H-Val-Amp(MPUPA)-Leu-Asp(tBu)-OH]
ring closure, isolated yield ([1]; 14-membered ring): 69%

Cc1ccccc1NC(=O)Nc1ccc(CC(=O)N2C[C@@H]3C[C@H]2C(=O)N[C@@H](CC(C)C)C(=O)N[C@@H](CC(=O)OC(C)(C)C)C(=O)N[C@@H](C(C)C)C(=O)N3)cc1 [H-Val-Amp(MPUPA)-Leu-Asp(tBu)-OH]
ring closure, isolated yield ([2]; from H-Val-Amp(MPUPA)-Leu-Asp(tBu)-OH, 14-membered ring, 0.53 mM): 69%

Cc1ccccc1NC(=O)Nc1ccc(CC(=O)N2C[C@@H](NC(=O)[C@@H](N)C(C)C)C[C@H]2C(=O)N[C@@H](CC(C)C)C(=O)N[C@@H](CCC(=O)OC(C)(C)C)C(=O)O)cc1 [H-Val-Amp(MPUPA)-Leu-Glu(tBu)-OH]
ring closure, isolated yield ([1]; 14-membered ring): 65%

Cc1ccccc1NC(=O)Nc1ccc(CC(=O)N2C[C@@H]3C[C@H]2C(=O)N[C@@H](CC(C)C)C(=O)N[C@@H](CCC(=O)OC(C)(C)C)C(=O)N[C@@H](C(C)C)C(=O)N3)cc1 [H-Val-Amp(MPUPA)-Leu-Glu(tBu)-OH]
ring closure, isolated yield ([2]; from H-Val-Amp(MPUPA)-Leu-Glu(tBu)-OH, 14-membered ring, 0.76 mM): 65%

Cc1ccccc1NC(=O)Nc1ccc(CC(=O)N2C[C@@H](NC(=O)CNC(=O)[C@@H](N)C(C)C)C[C@H]2C(=O)N[C@@H](CC(C)C)C(=O)N[C@@H](CC(=O)OC(C)(C)C)C(=O)O)cc1 [H-Val-Gly-Amp(MPUPA)-Leu-Asp(tBu)-OH]
ring closure, isolated yield ([1]; 17-membered ring): 88%

Cc1ccccc1NC(=O)Nc1ccc(CC(=O)N2C[C@@H]3C[C@H]2C(=O)N[C@@H](CC(C)C)C(=O)N[C@@H](CC(=O)OC(C)(C)C)C(=O)N[C@@H](C(C)C)C(=O)NCC(=O)N3)cc1 [H-Val-Gly-Amp(MPUPA)-Leu-Asp(tBu)-OH]
ring closure, isolated yield ([2]; from H-Val-Gly-Amp(MPUPA)-Leu-Asp(tBu)-OH, 17-membered ring, 0.47 mM): 88%

Cc1ccccc1NC(=O)Nc1ccc(CC(=O)N2C[C@@H](NC(=O)CNC(=O)[C@@H](N)C(C)C)C[C@H]2C(=O)N[C@@H](CC(C)C)C(=O)N[C@@H](CCC(=O)OC(C)(C)C)C(=O)O)cc1 [H-Val-Gly-Amp(MPUPA)-Leu-Glu(tBu)-OH]
ring closure, isolated yield ([1]; 17-membered ring): 78%

Cc1ccccc1NC(=O)Nc1ccc(CC(=O)N2C[C@@H]3C[C@H]2C(=O)N[C@@H](CC(C)C)C(=O)N[C@@H](CCC(=O)OC(C)(C)C)C(=O)N[C@@H](C(C)C)C(=O)NCC(=O)N3)cc1 [H-Val-Gly-Amp(MPUPA)-Leu-Glu(tBu)-OH]
ring closure, isolated yield ([2]; from H-Val-Gly-Amp(MPUPA)-Leu-Glu(tBu)-OH, 17-membered ring, 0.48 mM): 78%
